Experimental findings from patent publication US11679098B2, “Methods for treating diseases” (UNIVERSITY OF LOUISVILLE RESEARCH FOUNDATION, INC., priority 2018, dated 2023) are described below.

For series [1], the system named is A549 cells (non-transfected, non-targeting gRNA). Nature of the series: Relative proliferation of A549 cells that express MGST1 (non-transfected, non-targeting gRNA). The class given is cell-based, human. Conditions: 72 h, non-transfected A549 and non-targeting gRNA. The method, then:
(§1) FIG. 4: To assess the role of MGST1 in XB05 activity, we engineered MGST1 knockout cells using CRISPR/Cas9 technology. Effect of XB05 treatment (72 h) on the relative proliferation of two independent clones of A549 cancer cells that express MGST1 (non-transfected, non-targeting gRNA) or where MGST1 was knocked out (gRNA #2, gRNA 3).
Cell proliferation & viability assays. Anti-proliferative activity of XB05 and other compounds was evaluated using a previously published 3-(4,5-dimethylthiazol-2-yl)-2,5-diphenyltetrazolium bromide (MTT) assay protocol (MORGAN “Tetrazolium (MTT) assay for cellular viability and activity” Methods Mol Biol. (1998) Vol. 79, pp. 179-83, which is herein incorporated by reference in its entirety, BATES et al. “Antiproliferative activity of G-rich oligonucleotides correlates with protein binding” J Biol Chem. (1999) Vol. 274, No. 37, pp. 26369-26377, which is herein incorporated by reference in its entirety, SALIPUR et al. “A novel small molecule that induces oxidative stress and selectively kills malignant cells” Free Radic Biol Med. (2014) Vol. 68, pp. 110-121, which is herein incorporated by reference in its entirety). Cells were seeded in quadruplicate wells in 96-well plates and allowed to adhere overnight. […] After 72 hrs of treatment with XB05 or other compounds, MTT (Sigma, St. Louis, Mo.) was added for 4 hrs prior to cell lysis. […]

Series [2] deals with A549 (lung adenocarcinoma). Put plainly: MTT antiproliferative assay in A549 cells. The class given is cell-based, human. The procedure:
(§2) Cell culture. A549 and IMR-90 cells were purchased from the American Type Culture Collection (ATCC), while HOP-62 and HOP-92 were obtained from the cell line repository at the National Cancer Institute. Cells were grown in the appropriate medium supplemented with 10% fetal bovine serum (FBS, Life Technologies, Grand Island, N.Y.), 62.5 μg/mL penicillin and 100 μg/mL streptomycin (Life Technologies) in a humidified incubator at 37° C. with 5% CO2. The media were as follows: Dulbecco's modified Eagle's medium (DMEM, Life Technologies) for A549 cells; RPMI 1640 (Life Technologies) for HOP-62 and HOP-92 cells; Eagle's minimal essential medium (EMEM) with Eagle's balanced salt solution (EBSS), 2 mM L-glutamine, 1500 mg/L sodium bicarbonate (Lonza, Walkersville, Md.), supplemented with 1 mM sodium pyruvate (Life Technologies) and non-essential amino acids (Life Technologies) for IMR-90 cells. Cell lines were verified with a 9-marker short tandem repeat profile and inter-species contamination test (Idexx BioResearch), although A549 cells utilized in proliferation assays were missing the Y allele at the amelogenin marker.
(§3) Cell proliferation & viability assays. Anti-proliferative activity of XB05 and other compounds was evaluated using a previously published 3-(4,5-dimethylthiazol-2-yl)-2,5-diphenyltetrazolium bromide (MTT) assay protocol (MORGAN “Tetrazolium (MTT) assay for cellular viability and activity” Methods Mol Biol. (1998) Vol. 79, pp. 179-83, which is herein incorporated by reference in its entirety, BATES et al. “Antiproliferative activity of G-rich oligonucleotides correlates with protein binding” J Biol Chem. (1999) Vol. 274, No. 37, pp. 26369-26377, which is herein incorporated by reference in its entirety, SALIPUR et al. “A novel small molecule that induces oxidative stress and selectively kills malignant cells” Free Radic Biol Med. (2014) Vol. 68, pp. 110-121, which is herein incorporated by reference in its entirety). Cells were seeded in quadruplicate wells in 96-well plates and allowed to adhere overnight. […] After 72 hrs of treatment with XB05 or other compounds, MTT (Sigma, St. Louis, Mo.) was added for 4 hrs prior to cell lysis. Each assay was performed in at least triplicate.
(§4) XB05 and related compounds were assessed for anti-proliferative activity in malignant (A549) and non-malignant (IMR-90) cells (Table A2).

Series [3] can be described thus: DTNB assay for reactivity with free thiols, cysteine. It is filed as physicochemical. The procedure:
(§5) Dithiobis-2-nitrobenzioc acid (DTNB) assay for free sulfhydryls. Similar to previously described in SALIPUR et al. “A novel small molecule that induces oxidative stress and selectively kills malignant cells” Free Radic Biol Med. (2014) Vol. 68, pp. 110-121, which is herein incorporated by reference in its entirety, reactivity with free sulfhydryls was evaluated using DTNB (Sigma). Briefly, a 4× solution of DTNB (6 mM DTNB, 50 mM sodium acetate in 100 mM Tris-HCl, pH 8.0) and solutions of 0.5 mM cysteine (Sigma) and reduced glutathione (GSH, Sigma) in 100 mM Tris-HCl, pH 8.0 were freshly prepared. The 200 mM stock solutions of XB05, other compounds, diethylmaleate (Sigma), and maleimide (Sigma) were prepared in 100% DMSO, and subsequently diluted to 2× working solutions in 100 mM Tris-HCl, pH 8.0. Thiol compounds (final concentration 0.25 mM) and thiol-reactive compounds (final concentrations 0.04-5 mM) or vehicle were added in duplicate to a 96-well plate and incubated for 30 min at 37° C. DTNB solution was then added to each well (final concentration 400 μM), and incubated at room temperature for an additional 5 min. Absorbance at 412 nm was determined by a Biotek HT Synergy plate reader (Winooski, Vt.).

Series [4] deals with IMR-90 (non-malignant lung fibroblasts). Nature of the series: MTT antiproliferative assay in IMR-90 cells. The class given is cell-based. Conditions: Homo sapiens, 72 hrs treatment, read-out: MTT Antiproliferative Activity - IC50 (μM) IMR0 (non-malignant lung fibroblasts). The method, then: as §2, §3, §4
(In general: Formazan colour is commonly taken as a measure of viable cells.)

For series [5], the system named is MGST1 knockout A549 cells. Nature of the series: Relative proliferation of MGST1 knockout A549 cells (CRISPR/Cas9). It is filed as cell-based, human. Conditions: two different gRNA sequences, 72 h. The method, then:
FIG. 3: To assess the role of MGST1 in XB05 activity, we engineered MGST1 knockout cells using CRISPR/Cas9 technology. Western blot analysis indicating the knockout of MGST1 in A549 cells.
as §1
Cell proliferation & viability assays. Anti-proliferative activity of XB05 and other compounds was evaluated using a previously published 3-(4,5-dimethylthiazol-2-yl)-2,5-diphenyltetrazolium bromide (MTT) assay protocol (MORGAN “Tetrazolium (MTT) assay for cellular viability and activity” Methods Mol Biol. (1998) Vol. 79, pp. 179-83, which is herein incorporated by reference in its entirety, BATES et al. “Antiproliferative activity of G-rich oligonucleotides correlates with protein binding” J Biol Chem. (1999) Vol. 274, No. 37, pp. 26369-26377, which is herein incorporated by reference in its entirety, SALIPUR et al. “A novel small molecule that induces oxidative stress and selectively kills malignant cells” Free Radic Biol Med. (2014) Vol. 68, pp. 110-121, which is herein incorporated by reference in its entirety). […]

In series [6] the test system is NCI60 human tumor cell line panel. Put plainly: NCI60 human tumor cell line screen. It is filed as cell-based. From the text: FIG. 1: Screens to Identify the role of Microsomal glutathione S-transferase 1 (MGST1). Results from the NCI's 60 human tumor cell lines screen. The COMPARE algorithm was used to probe microarray results from the cell lines to identify gene expression that correlated with this unusual pattern of growth inhibition.
NCI60 human tumor cell line screen of XB05 activity. To further investigate the initial observations of XB05's anti-cancer activities, XB05 was submitted to the National Cancer Institute's Developmental Therapeutics Program for testing with the NCI60 human tumor cell line panel. This panel consists of 60 well-characterized human tumor cell lines (SHOEMAKER “The NCI60 human tumour cell line anticancer drug screen” Nat Rev Cancer (2006) Vol. 6, No. 10, Vol. 813-823, which is herein incorporated by reference in its entirety).

Series [7] can be described thus: DTNB assay for reactivity with free thiols, reduced glutathione. It is filed as physicochemical. The method, then: as §5

Take `CCCCCC(O)C#CC(F)(F)Br` (stereo not drawn) [XB05]: the “cell proliferation, % of vehicle” value in series [1] (1 μM) is listed as “approximately 20%”; in series [1] (2 μM), roughly 5%. The “IC30 value in A549 cells” value in series [2] was determined as 1000 nM. Also, the IC50 in series [2] (Homo sapiens, 72 hrs treatment, MTT) was found to be 0.4 µM; in series [4], 2.5 µM. In addition, the “DTNB Reactivity with Thiols - DTNB assay with Cysteine” value in series [3] (0.25 mM cysteine, 30 min at 37° C., pH 8.0) is listed as “ND (DTNB ND - not detected at concentrations up to 2.5 mM)”. Further, the “reactivity with thiol of cysteine” value in series [3] (FIG. 5) is “not reactive”. Also, in series [5], the “effect on cell proliferation after knockout of MGST1” value is reported as “reversed”. In addition, the “activity in the NCI60 screen” value in series [6] (60 human tumor cell lines) is “activity against about one-third of cancer cells”. Besides, in series [6] (less active cell lines versus sensitive cell lines), the “fold less sensitive (other cell lines in the screen)” value was “up to 1000 fold”. Besides, the “DTNB Reactivity with Thiols - DTNB assay with Glutathione” value in series [7] (0.25 mM reduced glutathione, 30 min at 37° C., pH 8.0) is given as “ND (DTNB ND - not detected at concentrations up to 2.5 mM)”. In addition, the “reactivity with thiol of glutathione” value in series [7] (FIG. 6) is “not reactive”.

The term IC50 denotes the concentration that inhibits the measured activity by half.
